Reference: patent EP0853084B1, “Substituted purine derivatives as vitronectin receptor antagonists” (HOECHST AKTIENGESELLSCHAFT, priority 1996, dated 1998)

What follows are molecules tested against humanen Vitronectinrezeptor (VnR) αvβ3 (Homo sapiens, UniProt P05106+P06756) (assay: Inhibition of binding of Kistrin to human vitronectin receptor (αvβ3 ELISA test, K/VnR)). Conditions: 10 µM test compound, read-out: K/VnR Inhibierung bei 10 µM (in %).
Description: Als Testmethode, nach der beispielsweise die antagonistische Wirkung der erfindungsgemäßen Verbindungen auf den Vitronectinrezeptor αvβ3 bestimmt werden kann, wird nachfolgend die Inhibierung der Bindung von Kistrin an humanen Vitronectinrezeptor (VnR) beschrieben (αvβ3-ELISA-Test; die Testmethode wird bei der Auflistung der Testergebnisse mit "K/VnR" abgekürzt).
Kistrin wird nach den Methoden von Dennis et al., wie in Proc. Natl. Acad. Sci. USA 1989, 87, 2471-2475 und PROTEINS: Structure, Function and Genetics 1993, 15, 312-321, beschrieben, gereinigt.
Humaner Vitronectinrezeptor wird aus der menschlichen Plazenta nach der Methode von Pytela et al., Methods Enzymol. 1987, 14.4, 475 gewonnen. Humaner Vitronectinrezeptor αvβ3 kann auch aus einigen Zellinien (zum Beispiel aus 293 Zellen, einer humanen embryonalen Nierenzellinie), die mit DNA Sequenzen für beide Untereinheiten αv und β3 des Vitronectinrezeptors co-transfziert sind, gewonnen werden. Die Untereinheiten wurden mit Octylglycosid extrahiert und anschließend über Concanavalin A, Heparin-Sepharose und S-300 chromatographiert.
Murine monoklonale Antikörper, spezifisch für die β3 Untereinheit des Vitronectinrezeptors, werden nach der Methode von Newman et al., Blood, 1985, 227-232, oder nach einem ähnlichen Verfahren hergestellt. Das Kaninchen Fab 2 anti-Maus Fc Konjugat an Meerrettich-Peroxidase (anti-Maus Fc HRP) wurde von Pel Freeze (Katalog Nr. 715 305-1) bezogen.
Die Fähigkeit von Substanzen die Bindung von Kistrin an den Vitronectinrezeptor zu inhibieren, kann mit einem ELISA-Test ermittelt werden. Zu diesem Zweck werden Nunc 96 well-Mikrotiterplatten mit einer Lösung von Kistrin (0.002 mg/ml) nach der Methode von Dennis et al., wie in PROTEINS: Structure, Function and Genetics 1993, 15, 312-321, beschrieben, belegt. Die Platten werden dann zweimal mit PBS/0.05 % Tween-20 gewaschen und durch Inkubieren (60 min) mit RinderserumAlbumin (BSA, 0.5 %, RIA Güteklasse oder besser) in Tris-HCl (50 mM), NaCl (100 mM), MgCl2 (1 mM), CaCl2 (1 mM), MnCl2 (1 mM), pH 7, geblockt. Man stellt Lösungen von bekannten Inhibitoren und von den Testsubstanzen in Konzentrationen von 2 x 10^-12 bis 2 x 10^-6 mol/l in Assay-Puffer (BSA (0.5 %, RIA-Güteklasse oder besser) in Tris-HCl (50 mM), NaCl (100 mM), MgCl2 (1 mM), CaCl2 (1 mM), MnCl2 (1 mM), pH 7) her. Die geblockten Platten werden entleert, und jeweils 0.025 ml dieser Lösung, die eine definierte Konzentration (2 x 10^-12 bis 2 x 10^-6 mol/l) entweder an einem bekannten Inhibitor oder an einer Testsubstanz enthält, werden in jedes well gegeben. 0.025 ml einer Lösung des Vitronectinrezeptors im Testpuffer (0.03 mg/ml) werden in jedes well der Platte pipettiert und die Platte wird auf einem Schüttler 60-180 min bei Raumtemperatur inkubiert. In der Zwischenzeit wird eine Lösung (6 ml/Platte) eines für die β3-Untereinheit des Vitronectinrezeptors spezifischen murinen monoklonalen Antikörpers im Assay-Puffer (0.0015 mg/ml) hergestellt. Zu dieser Lösung gibt man einen zweiten Kaninchen-Antikörper (0.001 ml Stammlösung/6 ml der murinen monoklonalen anti-β3-Antikörper-Lösung), der ein anti-Maus Fc HRP Antikörper Konjugat darstellt, und dieses Gemisch aus murinem anti-β3 Antikörper und Kaninchen anti-Maus Fc HRP Antikörper Konjugat läßt man während der Zeit der Rezeptor-Inhibitor-Inkubation inkubieren. Die Testplatten werden viermal mit PBS-Lösung, die 0.05 % Tween-20 enthält, gewaschen und man pipettiert jeweils 0.05 ml/well der Antikörpermischung in jedes well der Platte und inkubiert 60-180 min. Die Platte wird viermal mit PBS/0.05 % Tween-20 gewaschen und anschließend mit 0.05 ml/well einer PBS-Lösung, die 0.67 mg/ml o-Phenylendiamin und 0.012 % H2O2 enthält, entwickelt. Alternativ hierzu kann o-Phenylendiamin in einem Puffer (pH 5) eingesetzt werden, der Na3PO4 und Zitronensäure enthält. Die Farbentwicklung wird mit 1 N H2SO4 (0.05 ml/well) gestoppt. […]

Chain of humanen Vitronectinrezeptor (VnR) αvβ3 (P06756 31-889 limits assumed): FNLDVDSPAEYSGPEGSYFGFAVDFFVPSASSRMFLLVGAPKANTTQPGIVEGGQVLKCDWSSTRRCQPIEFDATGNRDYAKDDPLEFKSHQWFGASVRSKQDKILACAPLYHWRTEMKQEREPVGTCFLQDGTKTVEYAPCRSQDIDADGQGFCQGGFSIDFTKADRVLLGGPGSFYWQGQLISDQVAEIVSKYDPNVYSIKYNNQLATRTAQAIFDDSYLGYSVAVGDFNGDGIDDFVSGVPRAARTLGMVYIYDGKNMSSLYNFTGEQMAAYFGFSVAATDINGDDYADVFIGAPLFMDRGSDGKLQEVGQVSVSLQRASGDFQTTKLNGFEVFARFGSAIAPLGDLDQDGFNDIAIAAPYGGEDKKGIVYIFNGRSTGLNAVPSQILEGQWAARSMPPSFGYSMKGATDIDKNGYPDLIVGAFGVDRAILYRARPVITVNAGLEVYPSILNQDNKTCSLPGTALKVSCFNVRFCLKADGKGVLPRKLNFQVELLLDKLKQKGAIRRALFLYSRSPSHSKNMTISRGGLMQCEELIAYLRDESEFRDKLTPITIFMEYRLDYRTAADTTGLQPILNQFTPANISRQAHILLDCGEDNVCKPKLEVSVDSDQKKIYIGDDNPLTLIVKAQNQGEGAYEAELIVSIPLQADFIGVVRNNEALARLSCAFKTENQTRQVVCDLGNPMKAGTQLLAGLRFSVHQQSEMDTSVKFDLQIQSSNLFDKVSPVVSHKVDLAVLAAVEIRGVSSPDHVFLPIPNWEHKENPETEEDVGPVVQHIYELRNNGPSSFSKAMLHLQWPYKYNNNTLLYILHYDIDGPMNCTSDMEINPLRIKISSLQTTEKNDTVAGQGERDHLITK
Chain of humanen Vitronectinrezeptor (VnR) αvβ3 (P06756 891-1048 partner limits assumed): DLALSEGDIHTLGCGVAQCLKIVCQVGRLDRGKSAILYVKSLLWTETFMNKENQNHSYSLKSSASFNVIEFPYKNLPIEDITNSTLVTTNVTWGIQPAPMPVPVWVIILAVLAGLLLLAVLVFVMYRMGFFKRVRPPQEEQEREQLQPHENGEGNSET
Chain of humanen Vitronectinrezeptor (VnR) αvβ3 (P05106 27-788): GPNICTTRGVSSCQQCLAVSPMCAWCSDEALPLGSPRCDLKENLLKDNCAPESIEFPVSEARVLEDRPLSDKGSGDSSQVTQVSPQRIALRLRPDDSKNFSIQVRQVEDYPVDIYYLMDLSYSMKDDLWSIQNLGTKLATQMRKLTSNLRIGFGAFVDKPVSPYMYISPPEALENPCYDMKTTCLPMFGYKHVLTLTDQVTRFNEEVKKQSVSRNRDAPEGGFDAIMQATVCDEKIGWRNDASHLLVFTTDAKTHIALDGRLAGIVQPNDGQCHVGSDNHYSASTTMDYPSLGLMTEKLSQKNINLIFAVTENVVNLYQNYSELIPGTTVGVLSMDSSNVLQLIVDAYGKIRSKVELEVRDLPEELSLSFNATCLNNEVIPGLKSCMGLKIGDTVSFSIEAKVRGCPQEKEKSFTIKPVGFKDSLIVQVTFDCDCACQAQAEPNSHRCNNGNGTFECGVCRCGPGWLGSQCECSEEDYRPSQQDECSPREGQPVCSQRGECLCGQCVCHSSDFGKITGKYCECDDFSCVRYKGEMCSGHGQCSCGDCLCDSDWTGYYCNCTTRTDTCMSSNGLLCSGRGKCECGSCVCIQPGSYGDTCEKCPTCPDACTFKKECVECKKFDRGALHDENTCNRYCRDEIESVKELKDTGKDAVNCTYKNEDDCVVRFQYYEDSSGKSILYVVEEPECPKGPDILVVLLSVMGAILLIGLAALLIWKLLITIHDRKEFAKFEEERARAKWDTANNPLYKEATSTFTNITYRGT

| Compound | inhibition at 10 µM [%] |
| --- | --- |
| N=C(N)NCCCCCNc1ncnc2c1ncn2C[C@H](NC(=O)OCc1ccccc1)C(=O)O [Beispiel 1, N^6-(1-(5-Guanidinopentyl))-N^9-(3-(2S-(benzyloxycarbonylamino)propionsäure))-adenin] | 75 |
| N=C(N)NCCCCNc1ncnc2c1ncn2C[C@H](NC(=O)OCc1ccccc1)C(=O)O [Beispiel 2, N^6-(1-(4-Guanidinobutyl))-N^9-(3-(2S-(benzyloxycarbonylamino)propionsäure))-adenin] | 80 |
| N=C(N)NCCCNc1ncnc2c1ncn2C[C@H](NC(=O)OCc1ccccc1)C(=O)O [Beispiel 3, N^6-(1-(3-Guanidinopropyl))-N^9-(3-(2S-(benzyloxycarbonylamino)propionsäure))-adenin] | 77 |
| O=C(N[C@@H](Cn1cnc2c(NCCCCNC3=NCCN3)ncnc21)C(=O)O)OCc1ccccc1 [Beispiel 4, N^6-(1-(4-(4,5-Dihydro-1H-imidazol-2-ylamino)butyl))-N^9-(3-(2S-(benzyloxycarbonylamino)propionsäure))-adenin] | 93 |
| N=C(N)NCCCn1cnc2c(NCC[C@H](NC(=O)OCc3ccccc3)C(=O)O)ncnc21 [Beispiel 12, N^6-(4-(2S-(Benzyloxycarbonylamino)buttersäure))-N^9-(1-(3-guanidinylpropyl))-adenin] | 86 |
| O=C(N[C@@H](CCNc1ncnc2c1ncn2CCCNC1=NCCN1)C(=O)O)OCc1ccccc1 [Beispiel 13, N^6-(4-(2S-(Benzyloxycarbonylamino)buttersäure))-N^9-(1-(3-(4,5-dihydro-1H-imidazol-2-ylamino)-propyl))-adenin] | 92 |
| N=C(N)NCCCCCn1cnc2c(NC[C@H](NC(=O)OCc3ccccc3)C(=O)O)ncnc21 [Beispiel 14, N^6-(3-(2S-(Benzyloxycarbonylamino)propionsäure))-N^9-(1-(5-guanidinylpentyl))-adenin] | 84 |
| NCCCCCn1cnc2c(NC[C@H](NC(=O)OCc3ccccc3)C(=O)O)ncnc21 [Beispiel 14c, N^6-(3-(2S-(Benzyloxycarbonylamino)propionsäure))-N^9-(1-(5-aminopentyl))-adenin] | 22 |
| O=C(N[C@@H](CNc1ncnc2c1ncn2CCCCCNC1=NCCN1)C(=O)O)OCc1ccccc1 [Beispiel 15, N^6-(3-(2S-(Benzyloxycarbonylamino)propionsäure))-N^9-(1-(5-(4,5-dihydro-1H-imidazol-2-ylamino)pentyl))-adenin] | 92 |
| N=C(N)NCCCn1cnc2c(NC[C@H](NC(=O)OCc3ccccc3)C(=O)O)ncnc21 [Beispiel 16, N^6-(3-(2S-(Benzyloxycarbonylamino)propionsäure))-N^9-(1-(3-guanidinylpropyl))-adenin] | 85 |
| NCCCn1cnc2c(NC[C@H](NC(=O)OCc3ccccc3)C(=O)O)ncnc21 [Beispiel 16b, N^6-(3-(2S-(Benzyloxycarbonylamino)propionsäure))-N^9-(1-(3-aminopropyl))-adenin] | 29 |
| N=C(N)NCCCCn1cnc2c(NC[C@H](NC(=O)OCc3ccccc3)C(=O)O)ncnc21 [Beispiel 17, N^6-(3-(2S-(Benzyloxycarbonylamino)propionsäure))-N^9-(1-(4-guanidinylbutyl))-adenin] | 92 |
| O=C(N[C@@H](CNc1ncnc2c1ncn2CCCCNC1=NCCN1)C(=O)O)OCc1ccccc1 [Beispiel 18] | 95 |
| O=C(N[C@@H](Cn1cnc2c(N3CCC(C(=O)NC4=NCCCN4)CC3)ncnc21)C(=O)O)OCc1ccccc1 [Beispiel 19, 2S-Benzyloxycarbonylamino-3-(6-(4-(1,4,5,6-tetrahydropyrimidin-2-ylcarbamoyl)-piperdin-1-yl)-purin-9-yl)-propionsäure] | 97 |
| O=C(N[C@@H](Cn1cnc2c(NCCCCNc3nc4ccccc4[nH]3)ncnc21)C(=O)O)OCc1ccccc1 [Beispiel 23, 3-(6-((4-(Benzimidazol-2-ylamino)-butyl)-amino)-purin-9-yl)-2S-benzyloxycarbonyl-amino-propionsäure] | 93 |
| O=C(N[C@@H](Cn1cnc2c(N3CCC(CNC4=NCCN4)CC3)ncnc21)C(=O)O)OCc1ccccc1 [Beispiel 24, 2S-Benzyloxycarbonylamino-3-(6-(4-((4,5-dihydro-1H-imidazol-2-ylamino)-methyl)-piperidin-1-yl)-purin-9-yl)-propionsäure] | 95 |
| O=C(N[C@H](Cn1cnc2c(N3CCC(CNC4=NCCN4)CC3)ncnc21)C(=O)O)OCc1ccccc1 [Beispiel 25] | 89 |
| N=C(N)NCC1CCN(c2ncnc3c2ncn3C[C@H](NC(=O)OCc2ccccc2)C(=O)O)CC1 [Beispiel 26, 2S-Benzyloxycarbonylamino-3-(6-(4-(guanidinomethyl)-piperidin-1-yl)-purin-9-yl)-propionsäure] | 91 |
